In brackets after ≈: the same amount, converted by molar mass. Several values for one entry are separate records, joined by “and”; a condition that tells them apart may be missing. Equal values may be shown once.
Key:
Polθ-pol [1] = target: T1, Polθ-pol (Homo sapiens, UniProt O75417); assay: Cy5 fluorescence Polθ-pol DNA synthesis (strand displacement) IC50 assay; format: biochemical; conditions: Polθ-pol DNA synthesis, Cy5 fluorescence
T1 construct: purified recombinant human Polθ-pol (comprising amino acid residues 1792–2590); made in house
T1 sequence (O75417 1792-2590): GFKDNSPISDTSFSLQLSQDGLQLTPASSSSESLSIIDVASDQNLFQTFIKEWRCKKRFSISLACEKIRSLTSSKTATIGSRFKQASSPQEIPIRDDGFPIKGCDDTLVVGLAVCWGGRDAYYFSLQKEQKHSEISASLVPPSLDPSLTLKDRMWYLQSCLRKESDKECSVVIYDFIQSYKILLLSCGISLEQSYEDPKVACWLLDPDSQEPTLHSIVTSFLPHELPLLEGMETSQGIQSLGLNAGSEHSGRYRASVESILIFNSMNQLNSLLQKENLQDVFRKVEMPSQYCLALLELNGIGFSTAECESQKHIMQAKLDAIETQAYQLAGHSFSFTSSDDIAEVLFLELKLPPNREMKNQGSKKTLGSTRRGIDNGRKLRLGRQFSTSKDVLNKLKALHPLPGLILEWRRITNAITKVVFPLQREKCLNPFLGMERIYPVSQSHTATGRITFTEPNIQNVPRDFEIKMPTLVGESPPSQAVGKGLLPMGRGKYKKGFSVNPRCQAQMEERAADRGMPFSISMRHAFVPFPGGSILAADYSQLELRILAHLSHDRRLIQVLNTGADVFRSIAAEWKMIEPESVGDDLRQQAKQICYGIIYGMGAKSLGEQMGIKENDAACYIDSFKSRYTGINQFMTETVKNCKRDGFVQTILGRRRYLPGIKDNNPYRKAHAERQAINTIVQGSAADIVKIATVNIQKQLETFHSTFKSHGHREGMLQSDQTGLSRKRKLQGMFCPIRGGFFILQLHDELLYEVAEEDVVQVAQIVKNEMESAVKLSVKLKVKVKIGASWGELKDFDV
Protocol: The following Cy5 fluorescence assay was used to measure the ability of compounds to inhibit Polθ-pol in vitro. The fluorescent based assay was performed as follows: 60 nM of the pre-annealed primer-template containing a 5’ Cy5 fluorophore conjugated template strand (RP486-Cy5), a downstream complementary oligo conjugated with a 3’ Iowa BlackReg Dark quencher (RP343BHQRQ) and a primer strand (RP469D) was mixed with 50 uM 2'-deoxyribonucleoside triphosphates (dNTPs), 0.1 mg/mL Bovine serum albumin (BSA), 0.01% NP-40, 10% glycerol, 1 mM dithiothreitol (DTT), 10 mM MgCl2, 25 mM TrisHCl pH 7.8 in the presence of 2.5% DMSO with or without various concentrations (7-point dilution series) of Polθ-pol small-molecule inhibitors at 37 °C in a volume of 40 μL. The reactions were initiated by the addition of 5 nM of purified recombinant human Polθ-pol (comprising amino acid residues 1792–2590). The reactions were terminated by the addition of 20 mM EDTA after 18 min, and the Cy5 fluorescence intensity was measured using a CLARIOstar (BMG Labtech) plate reader. Reactions were performed in triplicate and the % inhibition at each concentration of the respective compound of Formula I was based on the mean.

[2] = Metabolic stability in liver microsomes; format: in vitro ADME; conditions: read-out: t1/2 liver microsomes
Solubility (2% DMSO/PBS) = format: physicochemical; conditions: aqueous buffer, kinetic from dmso stock
CAPAN-1 cells = assay: Clonogenic assay; format: cell-based; conditions: Capan-1 cells, vehicle
Protocol: (§1) Cells were plated on six or twelve or twenty-four well plates. In six well plate, 1000 cells/ well of BRCA2 -/-, BRCA1 -/-, PALB2 mut and 500 cells/ well of wildtype pair was plated; In twelve well plate, 600 cells/ well of BRCA2 -/-, BRCA1 -/-, PALB2 mut and 400 cells/ well of wildtype pair was plated; In twenty-four well plate, 500 cells/ well of BRCA2 -/-, BRCA1 -/-, PALB2 mut and 300 cells/ well of wildtype pair was plated. For MEFs, 300 cells per well in six-well plate were seeded. The medium was replaced every 2 days until the colonies were ready for staining in 10–12 days. For staining: Medium was removed from plates, and cells were rinsed with PBS. Fixation was carried out with—Water: Ethanol: Acetic acid (5:4:1) for 30 min followed by staining of colonies with 0.5% crystal violet in Water: Ethanol (3:2) for 2 h at room temperature. The plates were rinsed with water and left for drying overnight at room temperature. Colonies were then counted and IC50 was calculated using results from 3 or more independent experiments. Response curves are shown as mean colony formation +/- S.E.M.
(§2) Data are expressed as mean ± SEM from at least 3 independent experiments with triplicates for each condition unless stated otherwise. When conducting comparison between two groups, two-tailed unpaired t-test was used. Significance was assumed at p < 0.05. Asterisks in the figures indicate significance, ^∗p < 0.05, ^∗∗p < 0.01, ^∗∗∗p < 0.001. Combenefit® software version 2.021 was used to perform synergy analyses for drug combinations between RTx-161 and PARPi. GraphPad Prism 9 software was used to calculate IC50.

VC8 cells = assay: Clonogenic assay; format: cell-based, Chinese hamster; conditions: VC8 cells, vehicle
Protocol: as §1, §2

[3] = Colony survival, ola with or without RTX-161 (source data sheet Fig. 2 b; cell line not given); format: cell-based; conditions: vehicle
[4] = Colony survival, ola with or without RTX-161 (source data sheet Fig. 2 c; cell line not given); format: cell-based; conditions: ola 0.125 um, RTX-161 0 uM
Fl-Polθ = Fl-Polθ (UniProt O75417 1-2590); assay: EcoRI endonuclease protection with unlabeled DNA trap; RTx-152, ddCTP; i+1 complex fully resistant; Endonuclease protection buffer not in the material; crystals: 0.24 M Na citrate, 18% PEG 3350, 0.1 M Bis Tris propane pH 7.5, with 1 mM MgCl2, 1 mM ddGTP, 20 mM spermine in the complex mix; conditions: protein: recombinant; label: 32P (5'); 5' overhang 12 nt on template; 14 bp duplex
Polθ-pol [5] = target: T2, Polθ-pol (human, UniProt O75417 1792-2590); assay: EcoRI endonuclease protection with unlabeled DNA trap; RTx-161, ddCTP; cleavage suppressed >10 min; Endonuclease protection buffer not in the material; crystals: 0.24 M Na citrate, 18% PEG 3350, 0.1 M Bis Tris propane pH 7.5, with 1 mM MgCl2, 1 mM ddGTP, 20 mM spermine in the complex mix; conditions: protein: recombinant; label: 32P (5'); 5' overhang 12 nt on template; 14 bp duplex
T2 sequence: T1 sequence (O75417 1792-2590)

[6] = target: T3, PolθΔL (Polθ-pol, five loops replaced) (UniProt O75417 …, internal_change); assay: X-ray crystallography, 3.24 Å; RTx-152, ddGTP, Mg2+; closed conformation; Endonuclease protection buffer not in the material; crystals: 0.24 M Na citrate, 18% PEG 3350, 0.1 M Bis Tris propane pH 7.5, with 1 mM MgCl2, 1 mM ddGTP, 20 mM spermine in the complex mix; conditions: protein: recombinant; tags: 6xHis-SUMO removed with PreScission protease; 5' overhang 10 nt on template; 14 bp duplex
T3 sequence: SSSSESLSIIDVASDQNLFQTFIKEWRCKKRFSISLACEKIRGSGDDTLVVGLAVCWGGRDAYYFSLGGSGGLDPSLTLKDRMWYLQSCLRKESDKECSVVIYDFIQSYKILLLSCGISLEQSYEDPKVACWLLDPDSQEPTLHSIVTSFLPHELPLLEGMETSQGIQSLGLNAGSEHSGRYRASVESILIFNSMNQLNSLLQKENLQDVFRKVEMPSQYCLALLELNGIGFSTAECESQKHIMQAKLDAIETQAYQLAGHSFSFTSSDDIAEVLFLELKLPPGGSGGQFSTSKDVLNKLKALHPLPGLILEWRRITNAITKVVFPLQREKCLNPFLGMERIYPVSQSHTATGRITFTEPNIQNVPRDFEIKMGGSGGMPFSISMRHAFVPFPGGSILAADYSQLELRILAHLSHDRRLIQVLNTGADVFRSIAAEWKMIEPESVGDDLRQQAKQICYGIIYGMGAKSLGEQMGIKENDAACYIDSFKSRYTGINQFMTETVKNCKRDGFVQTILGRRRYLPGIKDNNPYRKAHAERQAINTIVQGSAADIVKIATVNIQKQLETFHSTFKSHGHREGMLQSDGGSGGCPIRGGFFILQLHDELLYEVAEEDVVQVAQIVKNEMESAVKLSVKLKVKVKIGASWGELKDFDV

Molecule: CN(C(=O)Oc1c(Cl)cc(Cl)c2cccnc12)c1ccccc1 [MC280003]
- IC50 (Polθ-pol [1]): 160 nM
- half-life [2]: 1.5 min
- solubility (Solubility (2% DMSO/PBS)): 21 µM (≈ 7.29 µg/mL)

Molecule: O=C(c1cc(Cc2n[nH]c(=O)c3ccccc23)ccc1F)N1CCN(C(=O)C2CC2)CC1 [ola]
- percent suvival (CAPAN-1 cells; ola 0.041 micro M, experiment block 1 (c0-c9)): 35.7622%
- percent suvival (CAPAN-1 cells; ola 0.041 micro M, experiment block 2 (c10-c19)): 95.0051%
- percent suvival (CAPAN-1 cells; ola 0.041 micro M, experiment block 3 (c20-c29)): 99.322%
- percent suvival (CAPAN-1 cells; ola 0.123 micro M, experiment block 1 (c0-c9)): 20.5479%
- percent suvival (CAPAN-1 cells; ola 0.123 micro M, experiment block 2 (c10-c19)): 86.264%
- percent suvival (CAPAN-1 cells; ola 0.123 micro M, experiment block 3 (c20-c29)): 101.808%
- percent suvival (CAPAN-1 cells; ola 0.37 micro M, experiment block 1 (c0-c9)): 15.0785%
- percent suvival (CAPAN-1 cells; ola 0.37 micro M, experiment block 2 (c10-c19)): 58.3758%
- percent suvival (CAPAN-1 cells; ola 0.37 micro M, experiment block 3 (c20-c29)): 61.807%
- percent suvival (CAPAN-1 cells; ola 1.11 micro M, experiment block 1 (c0-c9)): 13.2577%
- percent suvival (CAPAN-1 cells; ola 1.11 micro M, experiment block 2 (c10-c19)): 54.2134%
- percent suvival (CAPAN-1 cells; ola 1.11 micro M, experiment block 3 (c20-c29)): 43.0496%
- percent suvival (VC8 cells; ola 1.875 nano M): 82.1918% and 93.3333% and 61.7978%
- percent suvival (VC8 cells; ola 30.00 nano M): 0%
- percent suvival ([3]; ola 7.9 nano M): 85.0909% and 53.0303% and 63.9535%
- percent suvival ([3]; ola 11.8 nano M): 61.0909%
- percent suvival ([3]; ola 17.70 nano M): 49.2424% and 44.186% and 51.6364%
- percent suvival ([3]; ola 26.60 nano M): 49.0909%
- percent suvival ([3]; ola 40.00 nano M): 44.7273% and 28.7879% and 31.9767%
- percent suvival ([3]; ola 60.00 nano M): 38.5455%
- percent suvival ([3]; ola 90.00 nano M): 15.1515% and 16.8605% and 24.3636%
- percent suvival [4]: 53.6122% and 69.9422% and 40.4494%

B1: LM3-EcoRI/LM4-EcoRI primer-template (dsDNA)
DNA 1: CGGCGAATTCGCAG
DNA 2: AGTAAGAGAACGCTGCGAATTCGCCG
- binding result (Fl-Polθ): binds
- binding result (Polθ-pol [5]): binds

B2: crystallization primer-template (dsDNA)
DNA 1: CGACGTCGCAGCGC
DNA 2: GCGAGACTCCGCGCTGCGACGTCG
- binding result [6]: binds

Reference: article PMC10997755, “Discovery of a small-molecule inhibitor that traps Polθ on DNA and synergizes with PARP inhibitors” (Nature Communications, 2024)
